# In patent US8535689B2, “Identification of bacterial autoinducer and use in treating bacterial pathogenicity” (priority 2007, dated 2013):
# “Also recorded” adds a separate entry of the source.
# Tests used:
# [1] = system: CAI-1 reporter strain MM920 (V. cholerae El Tor C6706str ΔcqsA ΔluxQ/pBB1 (luxCDABE from V. harveyi)); experiment: Bioluminescence assay in V. cholerae CAI-1 reporter strain MM920; type: cell-based, Vibrio cholerae; conditions: for bioluminescence as a percentage of the bioluminescence activity of the V. cholerae CAI-1 autoinducer: reporter strain MM920, reference (S)-3-hydroxytridecan-4-one (CAI-1), FIG. 13; for activation of the V. cholerae quorum sensing circuit: to different degrees, pattern C13(5)>C13(R)>C12(S)≈C12(R)>C11(S)>C11(R); for activation of the V. cholerae quorum sensing circuit / fold greater biological activity than the molecule one carbon shorter: FIG. 3; for fold greater biological activity than the molecule one carbon shorter: side chain length comparison
# Method: CAI-1 Purification from E. coli. V. cholerae cqsA (VCA0523) was cloned into pTrc99A and transformed into E. coli strain DH5α. The recombinant strain was grown at room temperature with aeration in 2.4 L of M9 medium supplemented with glucose (4 g/L), leucine (0.5 g/L), and ampicillin (0.1 g/L). cqsA expression was induced for 16 h with 0.5 mM IPTG. Following centrifugation at 10,000×g and passage through a 0.22 μm filter, the cell-free culture fluid was mixed with 0.6 v dichloromethane (DCM) in a reparatory funnel. The organic phase was isolated, evaporated, and assayed for CAI-1 activity using the bioluminescent V. cholerae CAI-1 reporter strain MM920 (V. cholerae El Tor C67O6str ΔcqsA ΔluxQ/pBB1 (luxCDABE from V. harveyi)), as described in Miller et al. (2002). The extract was dissolved in DCM and further purified by passage through silica gel with 0.5 L of 7:3 DCM:methanol, followed by concentration via evaporation. 50-100 mg of the concentrate was dissolved in ˜1 mL DCM, injected onto a (2×25-cm) ethyl-pyridine HPLC column, and eluted using a gradient of increasing ethyl acetate in hexanes (0-80%) at 20 mL/min. Fractions were tested for CAI-1 activity; active fractions were pooled.
# Bioluminescence Assays. When assaying column fractions for autoinducer activity, 5% of each fraction was evaporated and dissolved in a mixture of water:acetonitrile (2:1). This preparation was added at 2% volume to the CAI-1 reporter strain MM920 (V. cholerae El Tor C67O6str ΔcqsA ΔluxQ/pBB1 (luxCDABE from V. harveyi)) according to previously described methods, as described in Miller et al. (2002). Synthetic CAI-1 preparations were dissolved in DMSO and supplied at 0.5% total volume to MM920 at specified concentrations.
# […]. Bioluminescence measurements at varying concentrations of analogue (generally from […]) were measured using a Wallac EnVision 2103 Multilabel Reader (Perkin Elmer, Waltham, Mass.).
# [2] = system: E. coli KX1200 (MG1655 ΔluxS); experiment: CAI-1 stability in culture with E. coli cells; type: in vitro ADME, Escherichia coli; conditions: E. coli ΔluxS in LB, 37° C. overnight, 10 μM CAI-1; FIG. 6d
# Method: (§1) Early stationary phase E. coli KX1200 (MG1655 ΔluxS) and V. cholerae BH1575 (El Tor C6706str ΔluxS ΔcqsA) were diluted to OD 0.1 in LB medium. Along with sterile LB medium, they were shaken overnight at 37° C. with and without 10 μM CAI-1 supplementation. Culture and LB samples were centrifuged at 10,000×g, filtered with 0.22 μm filters, and read at 10% final culture volume using the V. cholerae CAI-1 reporter bioassay.
# [3] = CAI-1 thermal stability, read with the V. cholerae bioluminescence assay; type: physicochemical; conditions: pH 7 phosphate buffer, FIG. 6a
# Method: CAI-1 stock in DMSO was diluted 1:128 into 10 mM potassium phosphate buffer at pH 7 to a final autoinducer concentration of 400 μM. Samples were incubated for specified lengths of time, chilled briefly on ice, and frozen in dry ice/ethanol. Samples were thawed, diluted 1:3 in the same phosphate buffer, and read with the V. cholerae bioluminescence assay. Diluted sample was added at 2.5% of reporter culture volume, for final concentrations of 3.3 μM CAI-1 and 250 μM potassium phosphate.
# [4] = system: TcpA, a subunit of the toxin co-regulated pilus (TCP); experiment: Western blot of TcpA production in V. cholerae strains treated with synthetic CAI-1; type: cell-based, Vibrio cholerae; conditions: ΔluxQ
# Description: Western Blot Analysis. […]. Anti-TcpA antibody and Anti-Rabbit IgG Horseradish Peroxidase Conjugate (Promega) were used with the SuperSignal West Pico Chemiluminescent Substrate (Pierce) system.
# Results. A major goal of quorum-sensing research is to develop strategies to artificially manipulate quorum-sensing-controlled processes in bacteria. […]. Proc. Natl. Acad. Sci. USA 84, 2833-2837 (1987), hereby incorporated by reference into this application. […]. […]. Importantly, synthetic CAI-1 had no effect on TcpA production in a ΔluxQ, ΔcqsS strain, which cannot respond to either CAI-1 or AI-2 (FIG. 4b, bottom row). […]
# [5] = CAI-1 pH stability, read with the V. cholerae bioluminescence assay; type: physicochemical; conditions: pH 2, 4, 6, 7, 8, 10, 12 potassium phosphate buffer; 5, 20, 60 minutes or overnight; FIG. 6b
# Method: CAI-1 stock in DMSO was diluted 1:128 into 100 mM potassium phosphate buffer at specified pH values to a final autoinducer concentration of 400 μM. Following incubation at room temperature for specified times, samples were neutralized with an equal volume of 100 mM potassium phosphate buffer (e.g. pH 10 buffer was added to pH 4 buffered autoinducer). Neutralized samples, now with 200 μM CAI-1, were chilled briefly on ice and frozen in dry ice/ethanol. Autoinducer samples were thawed, diluted 1:3 in 100 mM pH 7 potassium phosphate buffer, and read with the V. cholerae bioluminescence assay. Diluted sample was added at 5% of reporter culture volume, for final concentrations of 3.3 μM CAI-1 and 5 mM potassium phosphate.
# [6] = system: V. cholerae BH1575 (El Tor C6706str ΔluxS ΔcqsA); experiment: CAI-1 stability in culture with V. cholerae cells; type: in vitro ADME, Vibrio cholerae; conditions: V. cholerae ΔluxS ΔcqsA in LB, 37° C. overnight, 10 μM CAI-1; FIG. 6d
# Method: as §1
Compound,bioluminescence as a percentage of the bioluminescence activity of the V. cholerae CAI-1 autoinducer [1],activation of the V. cholerae quorum sensing circuit [1],further results
"[2H]C([2H])(C)C(O)C(=O)CCCCCCCCC (stereo not drawn) [2,2-D2-3-hydroxytridecan-4-one]",equivalent activity to CAI-1,,
"CCCCCCCCCC(=O)C(=O)CC [Compound 10, tridecane-3,4-dione]",ten,,"bioluminescence as a percentage of the bioluminescence activity of the V. cholerae CAI-1 autoinducer ([1]; listed as tridecan-3,4-dione): 10%"
"CCCCCCCCCC(=O)C(N)CC.Cl (stereo not drawn) [Compound 22, 3-aminotridecan-4-one hydrochloride]",equivalent activity to CAI-1,,
"CCCCCCCCC(=O)[C@@H](O)CC [Compound 5, (S)-3-hydroxydodecan-4-one]",twenty,activated,
"CCCCCCCCCC(=O)C(O)CC (stereo not drawn) [thirteen-carbon molecule, 3-hydroxytridecan-4-one]",,,fold greater biological activity than the molecule one carbon shorter [1]: 8 fold
"CCCCCCCCC(=O)C(O)CC (stereo not drawn) [twelve-carbon molecule, 3-hydroxydodecan-4-one]",,,fold greater biological activity than the molecule one carbon shorter [1]: 8 fold
"CCCCCCCC(=O)[C@@H](O)CC [C11(S), (S)-3-hydroxyundecan-4-one]",,activated,
"CCCCCCCCCC(=O)[C@H](O)CC [Compound 7, (R)-3-hydroxytridecan-4-one]",forty,activated,
"CCCCCCCC(=O)[C@H](O)CC [C11(R), (R)-3-hydroxyundecan-4-one]",,activated,
"CCCCCCCCCC(=O)[C@@H](O)CC [CAI-1, (S)-3-hydroxytridecan-4-one]",100%,activated,"effect of cells on CAI-1 levels [2]: do not adversely affect CAI-1 levels; heat stability ([3]; high temperatures (up to 80° C.)): subject to degradation; heat stability ([3]; physiologically relevant temperatures, 5, 20, 60 minutes or overnight): heat stable; TcpA production ([4]; cqsA+ V. cholerae strain, FIG. 4b middle row): repress TcpA production; also recorded: decreased; TcpA production ([4]; ΔcqsA V. cholerae strain, CAI-1 at concentrations up to 10 μM, FIG. 4b top row): repress TcpA production; also recorded: substantially repressed; TcpA production ([4]; ΔcqsS V. cholerae strain, FIG. 4b bottom row): no effect; pH stability [5]: stable under a wide range of pH values; effect of cells on CAI-1 levels [6]: do not adversely affect CAI-1 levels"
"CCCCCCCCC(=O)[C@H](O)CC [Compound 6, (R)-3-hydroxydodecan-4-one]",twenty,activated,
